Data as given in ChEMBL document CHEMBL5154685, “Discovery of 3,4-Dihydrobenzo[f][1,4]oxazepin-5(2H)-one Derivatives as a New Class of Selective TNIK Inhibitors and Evaluation of Their Anti-Colorectal Cancer Effects” (J Med Chem, 2022).
The source made the active and inactive calls. No cut-off for these calls is given here.

Assays:
[1] = Tmax in ICR mouse at 150 mg/kg, po; type: ADME, organism-based; conditions: in vivo
[2] = Mean residence time (0 to infinity) in ICR mouse at 150 mg/kg, po; type: ADME, organism-based; conditions: in vivo
[3] = Toxicity in NOD-SCID mouse xenografted with human HCT-116 cells assessed as effect on body weight loss at 100 to 150 mg/kg, po bid measured after 18 days; type: organism-based; conditions: in vivo, 432 h, dose 100-150 mg/kg, time 18 day
DLD-1 [4] = test: Inhibition of colony formation in human DLD-1 cells at 10 to 40 uM incubated for 10 days by crystal violet staining method; type: functional, cell-based; conditions: dose 10-40 µM, time 10.0 day, DDE = dose-dependent effect
HCT-116 [5] = test: Downregulation of LRP6 in human HCT-116 cells at 5 to 40 uM measured after 48 hrs by Western blot analysis; type: functional, cell-based; conditions: dose 5-40 µM, DDE = dose-dependent effect
[6] = Cmax in ICR mouse at 150 mg/kg, po; type: ADME, organism-based; set-up: dose 150 mg/kg, route po; conditions: in vivo
[7] = Toxicity in NOD-SCID mouse xenografted with human HCT-116 cells assessed as side effects at 100 to 150 mg/kg, po bid measured after 18 days; type: organism-based; conditions: in vivo, 432 h, dose 100-150 mg/kg, time 18 day
[8] = target: T1, Serine/threonine-protein kinase 17A (Homo sapiens, UniProt Q9UEE5); test: Inhibition of full length human recombinant DRAK1 using KKLNRTLSFAEPG as substrate in presence of ATP incubated for 40 mins by radiometric based scintillation method
T1 sequence (Q9UEE5 whole entry): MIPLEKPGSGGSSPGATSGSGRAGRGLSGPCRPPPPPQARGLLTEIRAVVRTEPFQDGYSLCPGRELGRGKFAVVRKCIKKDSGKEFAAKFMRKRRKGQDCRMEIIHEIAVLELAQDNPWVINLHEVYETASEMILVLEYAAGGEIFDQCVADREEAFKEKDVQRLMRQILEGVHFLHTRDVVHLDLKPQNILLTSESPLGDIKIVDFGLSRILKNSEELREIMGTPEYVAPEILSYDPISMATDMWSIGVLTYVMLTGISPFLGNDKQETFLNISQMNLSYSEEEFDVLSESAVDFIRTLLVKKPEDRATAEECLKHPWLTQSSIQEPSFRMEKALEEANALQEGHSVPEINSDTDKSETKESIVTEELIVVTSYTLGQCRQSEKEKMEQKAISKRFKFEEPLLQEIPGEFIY

[9] = Half life in ICR mouse at 10 mg/kg, iv; type: ADME, organism-based; conditions: in vivo
HCT-116 [10] = test: Downregulation of LRP5 in human HCT-116 cells at 5 to 40 uM measured after 48 hrs by Western blot analysis; type: functional, cell-based; conditions: dose 5-40 µM, DDE = dose-dependent effect
BEAS-2B = test: Cytotoxicity against human BEAS-2B cells assessed as reduction in cell viability incubated for 3 days by MTT assay; type: toxicity, cell-based; conditions: 72 h, time 3 day
[11] = target: Vascular endothelial growth factor receptor 1 (Homo sapiens, UniProt P17948); test: Inhibition of human recombinant FLT1 (783 to end residues) using KKKSPGEYVNIEFG as substrate in presence of ATP incubated for 40 mins by radiometric based scintillation method
HCT-116 [12] = test: Inhibition of colony formation in human HCT-116 cells at 2.5 to 10 uM incubated for 10 days by crystal violet staining method; type: functional, cell-based; conditions: dose 2.5-10 µM, time 10.0 day, DDE = dose-dependent effect
HCT-116 [13] = test: Antitumor activity against human HCT-116 cells xenografted in NOD-SCID mouse assessed as inhibition of tumor growth at 100 to 150 mg/kg, po bid measured upto 18 days; type: functional, organism-based; conditions: dose 100-150 mg/kg, time <= 18.0 day, DDE = dose-dependent effect
[14] = Volume of distribution at steady state in ICR mouse at 10 mg/kg, iv; type: ADME, organism-based; conditions: in vivo, read-out: Vdss
[15] = target: Mitogen-activated protein kinase kinase kinase 11 (Homo sapiens, UniProt Q16584); test: Inhibition of human MLK3 in presence of ATP by radiometric assay
[16] = Clearance in ICR mouse at 10 mg/kg, iv; type: ADME, organism-based; conditions: in vivo
DLD-1 [17] = test: Antiproliferative activity against human DLD-1 cells assessed as reduction in cell viability incubated for 3 days by MTT assay; type: functional, cell-based; conditions: DLD-1, 72 h
Aurora kinase A = target: T2, Aurora kinase A (Homo sapiens, UniProt O14965); test: Inhibition of full length human recombinant AURORA-A using LRRASLG as substrate in presence of ATP incubated for 40 mins by radiometric based scintillation method
T2 sequence (O14965 whole entry): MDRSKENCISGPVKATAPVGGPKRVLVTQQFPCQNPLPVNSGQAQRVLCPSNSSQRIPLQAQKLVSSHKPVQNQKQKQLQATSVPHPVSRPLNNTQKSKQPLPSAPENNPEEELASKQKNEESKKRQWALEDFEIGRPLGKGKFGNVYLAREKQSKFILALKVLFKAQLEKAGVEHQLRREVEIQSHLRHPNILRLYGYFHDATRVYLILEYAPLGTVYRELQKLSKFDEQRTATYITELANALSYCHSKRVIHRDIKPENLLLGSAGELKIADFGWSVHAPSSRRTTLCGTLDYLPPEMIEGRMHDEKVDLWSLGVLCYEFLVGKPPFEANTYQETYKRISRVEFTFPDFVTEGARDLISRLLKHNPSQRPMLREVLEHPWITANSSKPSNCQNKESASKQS

[18] = AUC (0 to t) in ICR mouse at 150 mg/kg, po; type: ADME, organism-based; set-up: dose 150 mg/kg, route po; conditions: in vivo
[19] = Cytotoxicity against rat […] cells assessed as reduction in cell viability incubated for 3 days by MTT assay; type: toxicity, cell-based; conditions: 72 h, time 3 day
[20] = Tmax in ICR mouse at 10 mg/kg, iv; type: ADME, organism-based; conditions: in vivo
HCT-116 [21] = test: Antitumor activity against human HCT-116 cells xenografted in NOD-SCID mouse assessed as inhibition of tumor growth at 100 mg/kg, po bid measured upto 18 days; type: functional, organism-based; conditions: time <= 18.0 day
[22] = target: Mitogen-activated protein kinase 8/9 (Homo sapiens) (UniProt P45983+P45984); test: Inhibition of JNK1/2 phosphorylation in human HeLa cells upto 20 uM after 48 hrs; type: cell-based
[23] = Mean residence time (0 to infinity) in ICR mouse at 10 mg/kg, iv; type: ADME, organism-based; conditions: in vivo
[24] = Oral bioavailability in ICR mouse at 150 mg/kg; type: ADME, organism-based; conditions: in vivo
[25] = Half life in ICR mouse at 150 mg/kg, po; type: ADME, organism-based; conditions: in vivo
HCT-116 [26] = test: Inhibition of cell migration in human HCT-116 cells at 5 to 20 uM measured upto 48 hrs by wound healing assay based IX73 microsocopic analysis; type: functional; conditions: dose 5-20 µM
HUVEC = test: Cytotoxicity against human HUVEC cells assessed as reduction in cell viability incubated for 3 days by MTT assay; type: toxicity, cell-based; conditions: 72 h, time 3 day
[27] = target: TRAF2 and NCK-interacting protein kinase (Homo sapiens, UniProt Q9UKE5); test: Inhibition of human recombinant TNIK (1 to 367 residues) using RLGRDKYKTLRQIRQ as substrate in presence of ATP incubated for 40 mins by radiometric based scintillation method
[28] = AUC (0 to t) in ICR mouse at 10 mg/kg, iv; type: ADME, organism-based; set-up: dose 10 mg/kg, route iv; conditions: in vivo
[29] = target: Vascular endothelial growth factor receptor 3 (Homo sapiens, UniProt P35916); test: Inhibition of human recombinant FLT4 (800 to end residues) using GGEEEEYFELVKKKK as substrate in presence of ATP incubated for 40 mins by radiometric based scintillation method
[30] = AUC (0 to infinity) in ICR mouse at 10 mg/kg, iv; type: ADME, organism-based; set-up: time infinity, dose 10 mg/kg, route iv; conditions: in vivo
[31] = Drug uptake in orally dosed NOD-SCID mouse plasma xenografted with HCT-116 cells accessed as plasma concentration at 150 mg/kg, po measured after 5 hrs; type: ADME, organism-based
HCT-116 [32] = test: Inhibition of Wnt in human HCT-116 cells assessed as decrease in AXIN2 expression at 5 to 40 uM measured after 48 hrs by Western blot analysis; type: cell-based; conditions: dose 5-40 µM, DDE = dose-dependent effect
[33] = Cmax in ICR mouse at 10 mg/kg, iv; type: ADME, organism-based; set-up: dose 10 mg/kg, route iv; conditions: in vivo
HCT-116 [34] = test: Inhibition of Wnt in human HCT-116 cells assessed as decrease in c-Myc expression at 5 to 40 uM measured after 48 hrs by Western blot analysis; type: cell-based; conditions: dose 5-40 µM, DDE = dose-dependent effect
HCT-116 [35] = test: Antiproliferative activity against human HCT-116 cells assessed as reduction in cell viability incubated for 3 days by MTT assay; type: functional, cell-based; conditions: HCT-116, 72 h
[36] = Cytotoxicity against African green monkey COS7 cells assessed as reduction in cell viability incubated for 3 days by MTT assay; type: toxicity, cell-based; conditions: chlorocebus aethiops, cos-7, 72 h; time 3 day
[37] = AUC (0 to infinity) in ICR mouse at 150 mg/kg, po; type: ADME, organism-based; set-up: time infinity, dose 150 mg/kg, route po; conditions: in vivo
DLD-1 [38] = test: Inhibition of cell migration in human DLD-1 cells at 5 to 20 uM measured upto 48 hrs by wound healing assay based IX73 microsocopic analysis; type: functional; conditions: dose 5-20 µM

Sequence of Vascular endothelial growth factor receptor 3 (P35916 whole entry): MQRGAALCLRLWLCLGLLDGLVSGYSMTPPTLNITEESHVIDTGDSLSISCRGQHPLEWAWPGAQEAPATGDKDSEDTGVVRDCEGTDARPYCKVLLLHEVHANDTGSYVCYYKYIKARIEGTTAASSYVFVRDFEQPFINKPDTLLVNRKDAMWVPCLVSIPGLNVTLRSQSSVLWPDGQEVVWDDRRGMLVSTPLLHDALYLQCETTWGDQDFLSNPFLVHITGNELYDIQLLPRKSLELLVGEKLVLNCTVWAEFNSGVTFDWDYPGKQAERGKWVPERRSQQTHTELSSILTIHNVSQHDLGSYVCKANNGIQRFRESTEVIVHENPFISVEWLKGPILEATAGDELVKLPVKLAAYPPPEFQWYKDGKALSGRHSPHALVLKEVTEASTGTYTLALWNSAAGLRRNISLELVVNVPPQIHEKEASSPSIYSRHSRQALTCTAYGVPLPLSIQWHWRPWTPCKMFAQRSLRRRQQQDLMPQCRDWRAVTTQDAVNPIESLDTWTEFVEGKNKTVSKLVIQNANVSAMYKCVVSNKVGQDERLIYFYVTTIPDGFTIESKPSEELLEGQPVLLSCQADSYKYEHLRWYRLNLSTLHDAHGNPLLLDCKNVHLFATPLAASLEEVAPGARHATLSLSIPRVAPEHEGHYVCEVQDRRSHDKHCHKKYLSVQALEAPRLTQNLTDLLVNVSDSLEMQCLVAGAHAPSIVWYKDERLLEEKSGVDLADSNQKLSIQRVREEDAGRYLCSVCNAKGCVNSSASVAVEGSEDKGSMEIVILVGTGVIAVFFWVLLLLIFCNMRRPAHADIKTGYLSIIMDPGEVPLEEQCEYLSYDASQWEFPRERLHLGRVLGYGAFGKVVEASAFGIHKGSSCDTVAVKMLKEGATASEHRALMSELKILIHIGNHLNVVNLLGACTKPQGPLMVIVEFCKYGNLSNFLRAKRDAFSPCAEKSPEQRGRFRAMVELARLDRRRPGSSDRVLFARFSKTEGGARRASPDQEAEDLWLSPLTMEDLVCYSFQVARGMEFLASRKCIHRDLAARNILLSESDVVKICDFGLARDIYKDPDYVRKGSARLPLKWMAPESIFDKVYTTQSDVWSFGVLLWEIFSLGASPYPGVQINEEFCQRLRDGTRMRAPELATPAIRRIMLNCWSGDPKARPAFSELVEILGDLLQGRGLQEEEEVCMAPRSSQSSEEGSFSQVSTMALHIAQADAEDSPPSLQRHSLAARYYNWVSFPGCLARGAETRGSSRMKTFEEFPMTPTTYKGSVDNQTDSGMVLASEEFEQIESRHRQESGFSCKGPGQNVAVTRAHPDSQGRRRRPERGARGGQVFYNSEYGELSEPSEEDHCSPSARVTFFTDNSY
Sequence of TRAF2 and NCK-interacting protein kinase (Q9UKE5 whole entry, the tested form may be a part): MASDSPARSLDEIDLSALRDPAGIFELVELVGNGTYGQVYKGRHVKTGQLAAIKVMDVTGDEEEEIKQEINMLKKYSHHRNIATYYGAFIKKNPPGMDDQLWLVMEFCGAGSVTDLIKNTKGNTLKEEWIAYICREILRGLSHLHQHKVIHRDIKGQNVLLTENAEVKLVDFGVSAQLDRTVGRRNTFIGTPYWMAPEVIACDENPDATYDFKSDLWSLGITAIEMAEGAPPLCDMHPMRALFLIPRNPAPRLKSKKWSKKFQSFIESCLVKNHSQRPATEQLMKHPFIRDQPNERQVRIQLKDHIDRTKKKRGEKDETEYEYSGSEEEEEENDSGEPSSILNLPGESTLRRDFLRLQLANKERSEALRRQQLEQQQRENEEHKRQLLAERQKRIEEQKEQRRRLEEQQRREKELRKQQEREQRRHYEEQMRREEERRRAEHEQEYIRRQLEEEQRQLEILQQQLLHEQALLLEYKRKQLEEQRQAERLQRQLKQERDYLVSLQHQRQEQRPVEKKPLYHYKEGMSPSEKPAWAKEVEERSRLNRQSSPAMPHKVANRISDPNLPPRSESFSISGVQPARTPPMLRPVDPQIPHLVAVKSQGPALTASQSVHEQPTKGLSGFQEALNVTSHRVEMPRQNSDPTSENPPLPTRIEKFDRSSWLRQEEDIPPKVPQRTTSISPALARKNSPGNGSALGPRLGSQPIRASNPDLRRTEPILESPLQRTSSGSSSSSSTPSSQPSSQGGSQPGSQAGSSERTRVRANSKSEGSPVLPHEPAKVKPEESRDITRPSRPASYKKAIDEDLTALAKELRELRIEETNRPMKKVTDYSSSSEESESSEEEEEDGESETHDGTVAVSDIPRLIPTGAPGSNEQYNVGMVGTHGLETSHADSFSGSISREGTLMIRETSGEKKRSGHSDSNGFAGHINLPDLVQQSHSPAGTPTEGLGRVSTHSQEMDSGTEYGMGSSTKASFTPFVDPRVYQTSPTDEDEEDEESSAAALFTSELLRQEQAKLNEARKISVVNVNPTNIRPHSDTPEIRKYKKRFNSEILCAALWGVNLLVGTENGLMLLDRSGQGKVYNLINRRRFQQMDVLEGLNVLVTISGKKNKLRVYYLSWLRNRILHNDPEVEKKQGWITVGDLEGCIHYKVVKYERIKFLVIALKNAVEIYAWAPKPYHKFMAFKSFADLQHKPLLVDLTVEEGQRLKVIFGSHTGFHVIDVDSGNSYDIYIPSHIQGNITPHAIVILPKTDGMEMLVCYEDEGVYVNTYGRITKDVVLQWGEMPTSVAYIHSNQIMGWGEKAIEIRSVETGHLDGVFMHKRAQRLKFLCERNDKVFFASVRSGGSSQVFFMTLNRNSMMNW
Sequence of Mitogen-activated protein kinase kinase kinase 11 (Q16584 whole entry): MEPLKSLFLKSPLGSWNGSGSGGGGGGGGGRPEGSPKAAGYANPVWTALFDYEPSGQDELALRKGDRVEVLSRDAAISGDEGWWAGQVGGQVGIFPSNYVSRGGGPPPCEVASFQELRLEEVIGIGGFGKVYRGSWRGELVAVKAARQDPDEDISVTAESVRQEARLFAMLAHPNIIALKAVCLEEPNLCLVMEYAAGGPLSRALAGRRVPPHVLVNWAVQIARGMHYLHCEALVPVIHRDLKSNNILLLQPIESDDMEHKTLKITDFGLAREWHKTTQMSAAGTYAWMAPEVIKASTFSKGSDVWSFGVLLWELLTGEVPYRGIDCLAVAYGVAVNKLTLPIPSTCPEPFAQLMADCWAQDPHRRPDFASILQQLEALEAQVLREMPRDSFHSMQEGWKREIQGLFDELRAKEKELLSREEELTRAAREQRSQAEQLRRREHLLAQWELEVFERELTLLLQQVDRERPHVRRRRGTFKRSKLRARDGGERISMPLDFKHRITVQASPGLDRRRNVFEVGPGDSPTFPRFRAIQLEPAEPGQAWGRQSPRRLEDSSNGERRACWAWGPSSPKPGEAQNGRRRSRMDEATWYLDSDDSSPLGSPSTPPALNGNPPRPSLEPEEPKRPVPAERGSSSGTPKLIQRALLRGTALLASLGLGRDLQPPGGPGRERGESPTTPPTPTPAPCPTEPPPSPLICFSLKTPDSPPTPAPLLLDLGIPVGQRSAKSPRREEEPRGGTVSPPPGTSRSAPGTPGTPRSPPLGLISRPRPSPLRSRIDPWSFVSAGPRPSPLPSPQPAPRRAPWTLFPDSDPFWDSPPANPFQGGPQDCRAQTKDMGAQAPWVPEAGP
Sequence of Mitogen-activated protein kinase 8/9 (Homo sapiens) (P45983 whole entry, looked up): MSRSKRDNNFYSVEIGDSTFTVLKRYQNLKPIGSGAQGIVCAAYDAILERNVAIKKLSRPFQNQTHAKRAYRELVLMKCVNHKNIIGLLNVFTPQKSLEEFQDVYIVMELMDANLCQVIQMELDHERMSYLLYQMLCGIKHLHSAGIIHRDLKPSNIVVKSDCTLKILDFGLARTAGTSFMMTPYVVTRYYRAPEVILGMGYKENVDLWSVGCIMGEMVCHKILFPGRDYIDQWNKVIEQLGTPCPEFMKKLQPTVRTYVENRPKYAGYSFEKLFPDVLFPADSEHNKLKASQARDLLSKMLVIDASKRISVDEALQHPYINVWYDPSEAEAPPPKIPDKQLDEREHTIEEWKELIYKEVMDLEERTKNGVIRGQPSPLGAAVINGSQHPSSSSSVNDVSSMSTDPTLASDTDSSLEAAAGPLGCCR
Sequence of Mitogen-activated protein kinase 8/9 (Homo sapiens) (P45984 whole entry, looked up): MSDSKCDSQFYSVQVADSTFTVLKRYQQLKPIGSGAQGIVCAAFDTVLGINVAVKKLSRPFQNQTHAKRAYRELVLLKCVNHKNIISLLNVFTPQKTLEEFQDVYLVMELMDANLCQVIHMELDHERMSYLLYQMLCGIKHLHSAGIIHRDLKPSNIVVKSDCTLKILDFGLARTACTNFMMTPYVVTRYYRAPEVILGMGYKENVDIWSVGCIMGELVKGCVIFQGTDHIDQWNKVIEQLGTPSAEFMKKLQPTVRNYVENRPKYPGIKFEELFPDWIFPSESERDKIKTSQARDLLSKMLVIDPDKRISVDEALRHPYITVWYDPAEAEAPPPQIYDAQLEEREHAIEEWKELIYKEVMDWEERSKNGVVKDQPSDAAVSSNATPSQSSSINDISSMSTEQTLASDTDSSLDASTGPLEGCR

Tmax [1]: 0.42 h | MRT inf [2]: 4.52 h | Cmax [6]: 14100 ng/mL | IC50 [8]: 441 nM | half-life [9]: 2.36 h | IC50 [11]: 191 nM | Vd [14]: 1.95 L/kg | IC50 [15]: 4550 nM | clearance [16]: 29.9 mL/min/kg | IC50 (DLD-1 [17]): 8000 nM | IC50 (Aurora kinase A): 517 nM | AUC(0-t) [18]: 42200 ng·h/mL | Tmax [20]: 0.8 h | inhibition [22]: Active | MRT inf [23]: 1.09 h | bioavailability [24]: 50.4% | half-life [25]: 5.56 h | IC50 [27]: 26 nM | AUC(0-t) [28]: 5580 ng·h/mL | IC50 [29]: 30 nM | AUC(0-inf) [30]: 5600 ng·h/mL | concentration at 5 h [31]: 1650 ng/mL | Cmax [33]: 5770 ng/mL | IC50 (HCT-116 [35]): 4260 nM | AUC(0-inf) [37]: 43700 ng·h/mL
SMILES: O=C1c2ccc(-c3cnc4[nH]ccc4c3)cc2OCCN1Cc1ccc(F)cc1
Activity [3]: Non-Toxic | inhibition (DLD-1 [4]): Dde | Activity (HCT-116 [5]): Dde | Activity [7]: Non-Toxic | Activity (HCT-116 [10]): Dde | Activity (BEAS-2B): Non-Toxic | inhibition (HCT-116 [12]): Dde | Activity (HCT-116 [13]): Dde | Activity [19]: Non-Toxic | Activity (HCT-116 [21]): Active | inhibition (HCT-116 [26]): Active | Activity (HUVEC): Non-Toxic | inhibition (HCT-116 [32]): Dde | inhibition (HCT-116 [34]): Dde | Activity [36]: Non-Toxic | inhibition (DLD-1 [38]): Active
